These are literature values, as cited in patent US12453719B2, “Treatment method using a complex of angiotensin II receptor antagonist metabolite and NEP inhibitor” (Shenzhen Salubris Pharmaceuticals Co., Ltd., priority 2019, dated 2025).

Where two headings read alike, the source gives them in different places.

The conditions of data set [1]: arithmetic mean.
The conditions of data set [2]: single oral administration of Losartan.

With `CCCCc1nc(Cl)c(CO)n1Cc1ccc(-c2ccccc2-c2nn[nH]n2)cc1` [Losartan], the “AUC Losartan” value in data set [1] (single administration of Losartan 40 mg (n = 15)) is 391.5 ng·h/mL; in data set [1] (single administration of Losartan 50 mg (n = 12)), 395.0 ng·h/mL; in data set [1] (single administration of Losartan 80 mg (n = 8)), 932.7 ng·h/mL; in data set [1] (single administration of Losartan 120 mg (n = 8)) it was 1277.7 ng·h/mL; in data set [1] (single administration of Losartan 150 mg (n = 8)) it was 1678.0 ng·h/mL; in data set [1] (single administration of Losartan 200 mg (n = 15)), 2371.6 ng·h/mL. In addition, the figures for the “AUC Losartan” value in data set [1] (single administration of Losartan 250 mg (n = 7)) and in data set [1] (single administration of Losartan 300 mg (n = 7)) were 2567.3 ng·h/mL and 3492.4 ng·h/mL, respectively. Besides, the “in vivo EXP3174 exposure (AUC) relative to the prototype drug” value in data set [2] is recorded as “about four”.
